For this assay, the target named is T1, PLA2G16 (Homo sapiens, UniProt P53816).
T1 construct: Hexa-His (N); made in house; host or cells: E. coli BL21(DE3)
T1 sequence (P53816 1-162): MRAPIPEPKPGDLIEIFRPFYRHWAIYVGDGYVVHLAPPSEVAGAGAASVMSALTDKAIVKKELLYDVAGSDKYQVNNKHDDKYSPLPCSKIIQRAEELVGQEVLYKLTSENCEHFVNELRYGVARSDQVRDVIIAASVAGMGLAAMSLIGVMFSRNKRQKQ
Put plainly: Enzyme activity assay for PLA2G16 (Red/Green BODIPY PC-A2 fluorescence). The assay is classed as biochemical. The conditions noted are these: His-tagged PLA2G16, 4 min pre-incubation, 2 nM to 50 μM; read-out: IC50 values of the compounds determined in the enzyme activity assay for PLA2G16. From the text:
A cDNA for PLA2G16(NM_007069) was custom-synthesized by Genscript (Piscataway, USA) and inserted into a pET-based bacterial expression vector [Moffatt, B. A. and Studier, F. W. (1986) J. Mol. Biol. 189, 113-130; Rosenberg, A. H., Lade, B. N., Chui, D., Lin, S., Dunn, J. J., and Studier, F. W. (1987) Gene 56, 125-135], enabling the expression of N-terminally Hexa-His-tagged PLA2G16. E. coli BL21(DE3) (Agilent) were transformed with pET-His-PLA2G16according to the manufacturer's instructions and plated on Carbenicillin-containing agar plates (final concentration: 100 μg/mL). A single clone was in occulated in 100 mL LB medium supplemented with 100 μg/mL Carbenicillin and the in occulated culture was grown at 37° C. overnight in a rotary shaker. On the next day, the bacterial culture was diluted in LB medium supplemented with 100 μg/mL Carbenicillin (30 mL overnight culture in 800 mL total culture volume). Bacteria were grown at 37° C. until the OD600 reached 0.6. Gene expression was induced by addition of 1 mM isopropyl-β-D-thiogalactopyranosid (IPTG) for 2 h at 18° C. Subsequently, bacteria were harvested by centrifugation (15 min; 10,000×g; 4° C.) and frozen at −80° C. The bacterial pellet was resuspended in Buffer A (50 mM Tris/HCl pH 7.5, 500 mM NaCl, 5% glycerol, 5 mM β-Mercaptoethanol and 1 mM PMSF) and lysed by addition of 1 mg/mL lysozyme (Sigma Aldrich) and 100 μg/mL DNasel-(Roche). The sample was incubated at 30° C. for 30 min to allow lysis to occur. Then, the lysate was cleared by centrifugation (15,000×g, 15 min, 4° C.) and incubated with 1.5 mL Ni-NTA agarose suspension (Qiagen) for 60 min at 4° C. The Ni-NTA agarose was washed with 10 mL Buffer A. Bound protein was eluted by applying a manual gradient of Buffer A supplemented with increasing concentrations of imidazole (Sigma Aldrich; 25/50/75/100/250 mM). Purified fractions were analyzed by SDS-PAGE followed by Coomassie staining to assess the purity.
Activity of the protein was assessed as follows: Red/Green BODIPY® PC-A2 (Invitrogen, 1 mM in DMSO) was mixed with equal volumes of 1,2-Dioleoyl-sn-glycero-3-phosphocholine (DOPC; Sigma Aldrich, 10 mM in Ethanol) and 1,2-Dioleoyl-sn-glycero-3-phospho-rac-(1-glycerol) (DOPG; Sigma Aldrich, 10 mM in Ethanol) and 0.5 volumes of Cholesterol (CHOL; Sigma Aldrich, 10 mM in Ethanol) and vortexed for 5 s. The mixture (Red/Green BODIPY® PC-A2/DOPC/DOPG/CHOL) was diluted 1:91.4 in activity assay buffer (50 mM Tris/HCl pH 8.5, 100 mM NaCl) using a small-orifice pipette tip under constant vortexing. In the following, this preparation will be referred to as the “substrate solution”.
In order to evaluate their inhibitory potential, compounds were dissolved at 10 mM concentration in DMSO and directly spotted into assay plates (Corning, Cat. No. 3576) using acoustic liquid transfer (Labcyte Echo 525). Each compound was spotted at increasing concentrations, ranging from 2 nM to 50 μM (concentration in the final assay volume). 50 μl of PLA2G16 enzyme solution (diluted in activity buffer, supplemented with 5 mM L-Glutathione; Sigma Aldrich) was pre-incubated with compounds for 4 min., followed by addition of 50 μl of substrate solution. Fluorescence was recorded immediately after substrate addition for a total time of 10 min. using a SpectraMax M5 multimode reader (Excitation wavelength: 480 nm, emission wavelength: 530 nm). The relative increase of fluorescence over time is referred to as the enzyme activity. Half-maximal inhibitory concentrations (IC50) were derived by non-linear regression analysis using the drc package in R (R Development. Core Team, 2005).

The results in this text go back to patent publication US11091428B2 (HAPLOGEN GMBH, priority 2016, dated 2021).

Where only a bound is given, the exact number is not on record here.

What is called IC50 is the concentration at which inhibition is half-maximal.

For `COCC(=O)N(C)C(C)C(=O)C(=O)NCC1CCCCC1` (stereo not shown) [FP 148, N-(Cyclohexylmethyl)-3-(2-methoxy-N-methylacetamido)-2-oxobutanamide], the IC50 was less than 1000 nM.

For `COc1ccccc1N(C=O)C(C)C(=O)C(=O)NCc1ccccc1` (stereo not shown) [FP 88, N-Benzyl-3-[N-(2-methoxyphenyl)formamido]-2-oxobutanamide], the half-maximal inhibitory concentration (IC50) was less than 1000 nM.

`COc1cccc(N(C=O)C(C)C(=O)C(=O)NCc2cccc(Cl)c2)c1` (stereo not shown) [FP 4, N-[(3-Chlorophenyl)methyl]-3-[N-(3-methoxyphenyl)formamido]-2-oxo butanamide]: the half-inhibitory concentration (IC50) was less than 1000 nM.

With `CC(C(=O)C(=O)NCC1CC1)N(CC1CCOCC1)S(C)(=O)=O` (stereo not shown) [FP 223, N-(Cyclopropylmethyl)-3-{N-[(oxan-4-yl)methyl]methanesulfonamido}-2-oxobutanamide], the IC50 lay within 10000 to 50000 nM.

Consider `O=C(NC1CC1)C(=O)C1CCC(=O)N1Cc1ccccc1Cl` (stereo not shown) [FP 260, 2-{1-[(2-Chlorophenyl)methyl]-5-oxopyrrolidin-2-yl}-N-cyclopropyl-2-oxoacetamide], for which the IC50 was less than 1000 nM.

Regarding `COc1ccccc1NC(=O)C(=O)[C@H](C)N(C=O)c1ccccc1OC` [FP 82, (3S)—N-(2-Methoxyphenyl)-3-[N-(2-methoxyphenyl)formamido]-2-oxobutanamide], the IC50 was in the range of 1000 to 10000 nM.

`C[C@@H](O)CNC(=O)C(=O)C1CCC(=O)N1Cc1ccc(Cl)cc1` (stereo partly drawn) [FP 259, 2-{1-[(4-Chlorophenyl)methyl]-5-oxopyrrolidin-2-yl}-N-[(2R)-2-hydroxypropyl]-2-oxoacetamide]: the IC50 was less than 1000 nM.

Take `COc1ccccc1N(C=O)C(C)C(=O)C(=O)NC(C)c1cccc(Cl)c1` (stereo not shown) [FP 84, N-[1-(3-Chlorophenyl)ethyl]-3-[N-(2-methoxyphenyl)formamido]-2-oxobutanamide]: the IC50 was less than 1000 nM.

As to `COc1ccc(N(C=O)C(C)C(=O)C(=O)NCc2cccc(Cl)c2)cc1` (stereo not shown) [FP 5, N-[(3-Chlorophenyl)methyl]-3-[N-(4-methoxyphenyl)formamido]-2-oxobutanamide], the IC50 is less than 1000 nM.

`COc1ccccc1N1C(=O)CC[C@H]1C(=O)C(=O)NCc1cccc(Cl)c1` [FP 139, N-[(3-Chlorophenyl)methyl]-2-[(2S)-1-(2-methoxyphenyl)-5-oxopyrrolidin-2-yl]-2-oxoacetamide]: the IC50 was 1000 to 10000 nM.

As to `CC(C(=O)C(=O)NCC1CCCCC1)N1CCCCC1=O` (stereo not shown) [FP 186, N-(Cyclohexylmethyl)-2-oxo-3-(2-oxopiperidin-1-yl)butanamide], the concentration for half-maximal inhibition (IC50) is 10000 to 50000 nM.

As to `COc1ccccc1N(C=O)C(C(=O)C(=O)NCc1cccc(Cl)c1)c1ccccc1` (stereo not shown) [FP 10, N-[(3-Chlorophenyl)methyl]-3-[N-(2-methoxyphenyl)formamido]-2-oxo-3-phenylpropanamide], the IC50 was 1000 to 10000 nM.

Consider `CC(C(=O)C(=O)NCC1CCCCC1)N(C)C(=O)CN(C)C` (stereo not shown) [FP 177, N-(Cyclohexylmethyl)-3-[2-(dimethylamino)-N-methylacetamido]-2-oxobutanamide], for which the IC50 is 1000 to 10000 nM.

On to `COc1ccccc1N(C=O)C(C)C(=O)C(N)=O` (stereo not shown) [FP 14, 3-[N-(2-Methoxyphenyl)formamido]-2-oxobutanamide], for which the IC50 lay within 1000 to 10000 nM.

With `CC(C(=O)C(=O)NCc1cccc(Cl)c1)N(C=O)c1ccccc1` (stereo not shown) [FP 6, N-[(3-Chlorophenyl)methyl]-2-oxo-3-(N-phenylformamido)butanamide], the IC50 was less than 1000 nM.

As for `COc1ccccc1N(C=O)C(C)C(=O)C(=O)N1CCc2ccc(Cl)cc2C1` (stereo not shown) [FP 76, N-[4-(7-Chloro-1,2,3,4-tetrahydroisoquinolin-2-yl)-3,4-dioxobutan-2-yl]-N-(2-methoxy-phenyl)formamide], the IC50 was in the range of 10000 to 50000 nM.

On to `COc1ccccc1N(C=O)C(C)C(=O)C(=O)NCc1ccccc1Cl` (stereo not shown) [FP 86, N-[(2-Chlorophenyl)methyl]-3-[N-(2-methoxyphenyl)formamido]-2-oxobutanamide], for which the IC50 is less than 1000 nM.

As for `COc1ccccc1N(C=O)[C@@H](C)C(=O)C(=O)NCc1cccc(Cl)c1` (single isomer, unassigned) [FP 3], the IC50 is less than 1000 nM.

Regarding `COc1ccccc1N(C=O)C(C)C(=O)C(=O)NCc1cccc(C)c1` (stereo not shown) [FP 87, 3-[N-(2-Methoxyphenyl)formamido]-N-[(3-methylphenyl)methyl]-2-oxo butanamide], the IC50 was less than 1000 nM.

Consider `CC(=O)NCCCOCCCCOCCCNC(=O)C(=O)C1CCC(=O)N1Cc1ccc(Cl)cc1` (stereo not shown) [FP 329, 2-{1-[(4-Chlorophenyl)methyl]-5-oxopyrrolidin-2-yl}-N-{3-[4-(3-acetamidopropoxy)butoxy]propyl}-2-oxoacetamide], for which the IC50 is less than 1000 nM.

In the case of `COc1ccccc1N(C=O)C(C)C(=O)C(=O)N(C)Cc1cccc(Cl)c1` (stereo not shown) [FP 77, N-[(3-Chlorophenyl)methyl]-3-[N-(2-methoxyphenyl)formamido]-N-methyl-2-oxobutanamide], the IC50 was less than 1000 nM.

Consider `COc1ccccc1N(C=O)C(C)(C)C(=O)C(=O)NCc1cccc(Cl)c1` [FP 9, N-[(3-Chlorophenyl)methyl]-3-[N-(2-methoxyphenyl)formamido]-3-methyl-2-oxobutanamide], for which the IC50 was in the range of 1000 to 10000 nM.

Turning to `COc1ccccc1N(C=O)C(C)C(=O)C(=O)NCC1CCOCC1` (stereo not shown) [FP 103, 3-[N-(2-Methoxyphenyl)formamido]-m[(oxan-4-yl)methyl]-2-oxobutanamide], the half-inhibitory concentration (IC50) is less than 1000 nM.

Turning to `CC(C)N(C=O)C(C)C(=O)C(=O)NC(C)(C)c1cccc(Cl)c1` (stereo not shown) [FP 26, N-[2-(3-Chlorophenyl)propan-2-yl]-2-oxo-3-[N-(propan-2-yl)formamido]butanamide], the IC50 fell in the range of 1000 to 10000 nM.

Consider `CC(NC(=O)c1ccc(F)cc1)C(=O)C(=O)NCC1CC1` (stereo not shown) [FP 153, N-(Cyclopropylmethyl)-3-[(4-fluorophenyl)formamido]-2-oxobutanamide], for which the IC50 was 1000 to 10000 nM.

With `CC(C(=O)C(=O)NCc1cccc(Cl)c1)N(C=O)Cc1ccccc1` (stereo not shown) [FP 20, 3-(N-Benzylformamido)-N-[(3-chlorophenyl)methyl]-2-oxobutanamide], the IC50 is less than 1000 nM.

Consider `COc1ccccc1N(C(C)=O)C(C)C(=O)C(=O)NCc1cccc(Cl)c1` (stereo not shown) [FP 185, N-[(3-Chlorophenyl)methyl]-3-[N-(2-methoxyphenyl)acetamido]-2-oxobutanamide], for which the IC50 is less than 1000 nM.

In the case of `CC(C)N(C=O)C(C)C(=O)C(=O)NCc1cccc(Cl)c1` (stereo not shown) [FP 21, N-[(3-Chlorophenyl)methyl]-2-oxo-3-[N-(propan-2-yl)formamido]butanamide], the IC50 was less than 1000 nM.

As for `Cc1cc(C(=O)N(C)C(C)C(=O)C(=O)NCC2CCCCC2)no1` (stereo not shown) [FP 147, N-(Cyclohexylmethyl)-3-[N-methyl-1-(5-methyl-1,2-oxazol-3-yl)formamido]-2-oxobutanamide], the IC50 is less than 1000 nM.

For `COc1ccccc1N(C=O)[C@H](C)C(=O)C(=O)NCc1cccc(Cl)c1` (single isomer, unassigned) [FP 2], the IC50 was less than 1000 nM.

With `COc1ccccc1N(C=O)CC(=O)C(=O)NCc1cccc(Cl)c1` [FP 19, N-[(3-Chlorophenyl)methyl]-3-[N-(2-methoxyphenyl)formamido]-2-oxopropanamide], the IC50 is less than 1000 nM.
